This passage reports anti-tumor activity and partial responses results from patent publication US20170348376A1, “TUBULYSIN CONJUGATE FOR USE IN TREATING CANCER” (ENDOCYTE, INC., priority 2016, published 2017).

SMILES strings stand for the structures. Counter-ions that a name gives are not always drawn.

Experiment [1] relates to primary human Ovarian model ST024 tumors. Nature of the experiment: Antitumor activity in Ovarian ST024 model. Format: in vivo, Balb/c nu/nu mice. Conditions: Paclitaxel 15 mg/kg, once a week for two weeks (SIW×2); n=7.
Experiment [2] has as its system primary human Endometrial model ST040 tumors. In words: Antitumor activity in Endometrial ST040 model. In kind it is in vivo, Balb/c nu/nu mice. Conditions: Paclitaxel 15 mg/kg, once a week for two weeks (SIW×2); n=3.
Experiment [3] deals with FR-positive paclitaxel resistant KB-PR10 tumors. In words: Antitumor activity on paclitaxel resistant KB-PR10 tumors. In kind it is in vivo, nu/nu mice. Conditions: paclitaxel 20 mg/kg, three times a week for two weeks (TIW×2), i.v. As to the method:
Four to six week-old female nu/nu mice (Harlan Sprague Dawley, Inc., Indianapolis, Ind.) were maintained on a standard 12 h light-dark cycle and fed ad libitum with folate-deficient chow (Harlan diet #TD00434, Harlan Teklad, Madison, Wis.) for the duration of the experiment. FR-positive paclitaxel resistant KB-PR10 cells were grown continuously as a monolayer, using folate-free RPMI medium (FFRPMI) containing 5% heat-inactivated fetal calf serum (HIFCS) at 37° C. in a 5% CO2/95% air-humidified atmosphere with no antibiotics. KB-PR10 cells (1×10^6 per nu/nu mouse) in 100 μL were injected in the subcutis of the dorsal medial area. […] Mice were treated with 20 mg/kg Paclitaxel, 2 μmol/kg EC145 (See WO2004/069159 for a description of EC145) or 1 μmol/kg Compound I on a three times a week for 2 weeks schedule when the tumors were approximately 100-145 mm^3, 101-129 mm^3 and 100-140 mm^3 in volume, respectively. The mice in the control groups received no treatment.

Experiment [4] has as its system primary human TNBC model ST502 tumors. In words: Antitumor activity in TNBC ST502 model. In kind it is in vivo, Balb/c nu/nu mice. Conditions: Eribulin mesylate 1 mg/kg, once a week for two weeks (SIW×2); n=7. As to the method: (§1) These materials were obtained from and studies were performed at South Texas Accelerated Research Therapeutics, 4383 Medical Drive, San Antonio, Tex. 78229

For experiment [5], the system named is primary human TNBC model ST738 tumors. In words: Antitumor activity in TNBC ST738 model. Conditions: Eribulin mesylate 1 mg/kg, once a week for two weeks (SIW×2); n=7. In kind it is in vivo, Balb/c nu/nu mice. On the procedure:
as §1

Experiment [6] has as its system primary human NSCLC model LU1147 tumors. In words: Antitumor activity in Huprime NSCLC PDX tumor model LU1147. The conditions noted are these: Docetaxel 15 mg/kg, one dose. In kind it is in vivo, Balb/c nu/nu mice. As to the method:
(§2) These studies were performed at Crown Bioscience (Beijing) Inc., Ground Floor, Light Muller Building, Changping Sector of Zhongguancun Scientific Park, No. 21 Huoju Road, Changping District, Beijing, P.R. China.

The test system of experiment [7] is primary human NSCLC model LU2505 tumors. Nature of the experiment: Antitumor activity in Huprime NSCLC PDX tumor model LU2505. Format: in vivo, Balb/c nu/nu mice. Conditions: Docetaxel 15 mg/kg, one dose. On the procedure:
as §2

On to `CC(=O)O[C@H]1C(=O)[C@@]2(C)[C@H]([C@H](OC(=O)c3ccccc3)[C@]3(O)C[C@H](OC(=O)[C@H](O)[C@@H](NC(=O)c4ccccc4)c4ccccc4)C(C)=C1C3(C)C)[C@]1(OC(C)=O)CO[C@@H]1C[C@@H]2O` [Paclitaxel], for which the anti-tumor activity result in experiment [1] was “no anti-tumor activity”; in experiment [2], “minimal anti-tumor activity”; in experiment [3] it was “little to no anti-tumor activity”. In experiment [3], this compound came in with a partial responses of 0.

`C=C1C[C@@H]2CC[C@@]34C[C@H]5O[C@H]6[C@@H](O3)[C@H]3O[C@H](CC[C@@H]3O[C@H]6[C@H]5O4)CC(=O)C[C@@H]3[C@@H](OC)[C@@H](C[C@H](O)CN)O[C@H]3C[C@H]3O[C@@H](CC[C@@H]1O2)C[C@@H](C)C3=C` [Eribulin mesylate]: the anti-tumor activity entry in experiment [4] was “minimal anti-tumor activity”; in experiment [5], “some anti-tumor activity”.

Regarding `CC(=O)O[C@@]12CO[C@@H]1C[C@H](O)[C@@]1(C)C(=O)[C@H](O)C3=C(C)[C@@H](OC(=O)[C@H](O)[C@@H](NC(=O)OC(C)(C)C)c4ccccc4)C[C@@](O)([C@@H](OC(=O)c4ccccc4)[C@H]21)C3(C)C` [Docetaxel], the anti-tumor activity result in experiment [6] was “minimal anti-tumor activity”; in experiment [7] it was “some anti-tumor activity”.
